Data published in PubChem BioAssay AID493043 (Johns Hopkins Ion Channel Center, 2011).

Biological target: Potassium voltage-gated channel subfamily KQT member 4 (Homo sapiens) (UniProt P56696)
Test: human KCNQ4 channel current potentiation, dose response, selectivity assay for KCNQ2 activator project, automated patch clamp, CHO cells (AID 493043)

Sequence of Potassium voltage-gated channel subfamily KQT member 4 (Homo sapiens) (P56696 whole entry, looked up): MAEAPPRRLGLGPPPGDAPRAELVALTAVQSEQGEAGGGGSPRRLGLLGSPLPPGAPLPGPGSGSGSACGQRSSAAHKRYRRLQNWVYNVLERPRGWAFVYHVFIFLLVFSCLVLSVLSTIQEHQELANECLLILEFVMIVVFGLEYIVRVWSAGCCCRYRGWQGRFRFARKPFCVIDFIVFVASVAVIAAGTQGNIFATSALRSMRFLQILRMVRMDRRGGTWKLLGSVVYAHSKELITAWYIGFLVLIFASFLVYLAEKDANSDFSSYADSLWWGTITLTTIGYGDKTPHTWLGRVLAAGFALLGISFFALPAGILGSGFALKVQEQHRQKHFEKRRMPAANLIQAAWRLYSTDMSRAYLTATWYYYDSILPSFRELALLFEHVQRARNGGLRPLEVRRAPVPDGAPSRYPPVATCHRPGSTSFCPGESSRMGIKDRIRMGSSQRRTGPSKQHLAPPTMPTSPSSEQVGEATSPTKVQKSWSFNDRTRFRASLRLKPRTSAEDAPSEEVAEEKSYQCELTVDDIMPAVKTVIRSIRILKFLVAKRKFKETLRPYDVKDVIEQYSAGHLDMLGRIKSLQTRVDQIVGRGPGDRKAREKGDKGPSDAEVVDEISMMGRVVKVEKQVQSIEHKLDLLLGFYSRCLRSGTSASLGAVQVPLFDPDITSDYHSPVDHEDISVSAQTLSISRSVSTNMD

With Cc1cc(C)c(NC(=O)C2CC3CCC2C3)c(C)c1 (stereo unspecified) the EC50 was 513 nM.
